Experimental findings from PubChem BioAssay (NCI) are described below.

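In this assay, cells in 96-well plates receive the compound at five concentrations for 48 hours. Endpoints are linearly interpolated between the surrounding concentrations. Definition used: TGI = concentration required for complete inhibition of growth.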

Experiment in all cases: NCI tumour cell line growth inhibition, 48 h
In experiment [1] the test system is PC-3 prostate.
Experiment [2] has as its system T-47D breast.
Experiment [3] concerns OVCAR-3 ovarian.
In experiment [4] the test system is TK-10 renal.
Experiment [5] relates to UACC-62 melanoma.
In experiment [6] the test system is NCI-H522 lung.
The subject of experiment [7] is OVCAR-5 ovarian.
The subject of experiment [8] is SNB-19 CNS.
The subject of experiment [9] is HCC-2998 colon.
The subject of experiment [10] is CAKI-1 renal.
In experiment [11] the test system is NCI/ADR-RES ovarian.
In experiment [12] the test system is MDA-MB-231 breast.
Experiment [13] deals with MDA-N.
The subject of experiment [14] is ACHN renal.
In experiment [15] the test system is HCT-15 colon.
In experiment [16] the test system is SW-620 colon.
In experiment [17] the test system is U251 CNS.
Experiment [18] deals with NCI-H23 lung.
Experiment [19] has as its system DU-145 prostate.

For the compound `COc1cccc2c1C1(O)C2CCCCCCCCCC12OCCCO2` (stereo not drawn), the TGI was more than 100 µM in experiment [1]; more than 100 µM in experiment [2]; more than 81 µM in [3]; more than 100 µM in [4]; more than 100 µM in experiment [5]; more than 96.5 µM in [6]. The TGI in experiment [7], in experiment [8], in experiment [9], in [10], in experiment [11] and in [12] was more than 100 µM in each case. The TGI in [13], in experiment [14], in [15], in [16], in experiment [17] and in experiment [18] was more than 100 µM each time. The compound also returned a TGI in experiment [19] of more than 100 µM.
As for `COC(=O)CN(CC(O)C(NC(C)=O)C(O)C=O)C(=O)OCc1ccccc1` (stereo not drawn), the TGI in experiment [1], in [2], in experiment [3], in [4], in [5] and in [6] was more than 100 µM each time. Moreover, the TGI in experiment [7], in [8], in experiment [9], in [10], in experiment [11] and in experiment [12] was more than 100 µM each time. The TGI in [13] is more than 100 µM; in [14] it was more than 100 µM; in [15] it was more than 31.6 µM; in experiment [16], more than 100 µM; in [17], more than 100 µM; in experiment [18], more than 100 µM. In addition, the TGI in experiment [19] is more than 100 µM.
For `S=C=Nc1ccc(CSc2nc3ccccc3[nH]2)cc1`, the TGI in experiment [1] came out at 32 µM; in experiment [2], 31.8 µM; in [4], 38.9 µM; in experiment [5], 29.4 µM; in [6] it was 19.1 µM; in experiment [7] it was 32.4 µM. The TGI in experiment [8] stood at 86.1 µM; in [9] it was 32.1 µM; in experiment [10] it was 33.5 µM; in experiment [11], 33 µM; in experiment [12] it was 51.6 µM; in [13] it was 40.7 µM. The TGI is 30.5 µM in experiment [14]; 28.4 µM in experiment [15]; 31.4 µM in experiment [16]; 30.9 µM in [17]; 32.7 µM in experiment [18]; 29.6 µM in experiment [19].
Consider `COC(=O)CCC1=NCC(C)(C)O1`, for which the TGI in experiment [1], in [2], in [3], in [4], in [5] and in experiment [6] was more than 10 µM in each case. Also, the TGI in experiment [7], in experiment [8], in experiment [9], in experiment [10], in experiment [11] and in experiment [12] was more than 10 µM in each case. For the same compound, the TGI in experiment [13], in [14], in experiment [15], in experiment [16], in [17] and in [18] was more than 10 µM throughout. Moreover, the TGI in experiment [19] was more than 10 µM.
Regarding `CC(=O)Nc1ccc2c3c(cc(O)c2c1)N(C(=O)CCCCC(=O)N1CC(CCl)c2c1cc(O)c1cc(NC(C)=O)ccc21)CC3CCl` (stereo not drawn), the TGI is more than 33.7 µM in [1]; 0.0973 µM in experiment [2]; 11.9 µM in experiment [4]; 0.22 µM in experiment [5]; 0.545 µM in [6]; 8.54 µM in experiment [7]. Also, the TGI was 5.02 µM in experiment [8]; 0.443 µM in experiment [9]; 18.1 µM in experiment [10]; more than 100 µM in experiment [11]; 0.733 µM in [12]; 0.566 µM in [13]. The TGI in experiment [14] was 1.49 µM; in [15], more than 70.6 µM; in experiment [16] it was more than 100 µM; in experiment [18], 0.744 µM; in experiment [19], 0.209 µM.
As for `Cn1c2c(c3ccccc31)CCN=C2C1CCCOC1=O` (stereo not drawn), the TGI in experiment [1], in [2], in experiment [3], in [4], in experiment [5] and in experiment [6] was more than 100 µM in each case. Also, the TGI in experiment [7], in experiment [8], in [9], in experiment [10], in experiment [11] and in experiment [12] was more than 100 µM throughout. The TGI in [13], in [14], in experiment [15], in experiment [16], in [17] and in [19] was more than 100 µM each time.
For the compound `CC1C2CCC3C(O)C2(CC(O)C2(O)C1CC(O)C2(C)C)CC3(C)O` (stereo not drawn), the TGI in experiment [1], in experiment [2], in experiment [4], in experiment [5], in [6] and in [7] was more than 100 µM in each case. The TGI in [8], in [9], in experiment [10], in experiment [11], in [12] and in [13] was more than 100 µM each time. Further, the TGI in experiment [14], in experiment [15], in experiment [16], in [17], in experiment [18] and in experiment [19] was more than 100 µM in each case.
